Assay results reported in ChEMBL document CHEMBL1129304, “11-Ketotigogenin cellobioside (pamaqueside): a potent cholesterol absorption inhibitor in the hamster” (J Med Chem, 1996).

Columns and labels:
Format in all cases: ADME, organism-based, Canis lupus familiaris
[1] = Pharmacokinetic parameter Cmax has been determined in fed Beagle dogs at a dose of 500 mg/kg; set-up: dose 500 mg/kg; details: dog, in vivo
Canis familiaris = assay: Pharmacokinetic parameter AUC has been determined in fed Beagle dogs at a dose of 500 mg/kg; set-up: dose 500 mg/kg; details: dog, in vivo
[2] = Pharmacokinetic parameter half-life was determined in fed Beagle dogs after iv administration of 1.5 mg/kg; set-up: dose 1.5 mg/kg, route intravenous; details: dog, in vivo
[3] = Pharmacokinetic parameter volume was determined in fed Beagle dogs after iv administration of 1.5 mg/kg; set-up: dose 1.5 mg/kg, route intravenous; details: dog, in vivo, read-out: Volume
[4] = Pharmacokinetic parameter clearance was determined in fed Beagle dogs after iv administration of 1.5 mg/kg; set-up: dose 1.5 mg/kg, route intravenous; details: dog, in vivo
[5] = Bioavailability in fed Beagle dogs at a dose of 500 mg/kg; details: dog, in vivo

Question: Which Cmax [1] does the source give for `C[C@@H]1CC[C@@]2(OC1)O[C@H]1C[C@H]3[C@@H]4CC[C@H]5C[C@@H](O[C@@H]6O[C@H](CO)[C@@H](O[C@@H]7O[C@H](CO)[C@@H](O)[C@H](O)[C@H]7O)[C@H](O)[C@H]6O)CC[C@]5(C)[C@H]4C(=O)C[C@]3(C)[C@H]1[C@@H]2C` [PAMAQUESIDE] here?
Answer: 110 ng/mL

Question: And the AUC (Canis familiaris)?
Answer: 2150 ng·h/mL

Question: And the half-life [2]?
Answer: 4.5 h

Question: What about the Vd [3] of the same molecule?
Answer: 0.5 L/kg

Question: And the clearance [4]?
Answer: 1.4 mL/min/kg

Question: What about the bioavailability [5] of the same molecule?
Answer: 0.04%
